Test results taken from article PMC8464836 (Biomolecules, 2021).

What was measured:
[1] = molecular target: T1, dopamine receptor (D2) wild type (D2Rs) (Homo sapiens, UniProt P14416); test: D2R competition binding with [3H]-spiperone on membranes of transfected CHO cells; details: for Ki: D2Rs, competition with 180 pM [3H]-spiperone, mean ± SEM, n = 3; for IC50: Table S1, D2Rs, mean ± S.E.M. of 3 independent experiments in triplicate, read-out: IC50 in µM ± SEM
T1 construct: host or cells: CHO cells, transient PEI transfection; membranes prepared 48 h after transfection
T1 sequence (P14416 whole entry): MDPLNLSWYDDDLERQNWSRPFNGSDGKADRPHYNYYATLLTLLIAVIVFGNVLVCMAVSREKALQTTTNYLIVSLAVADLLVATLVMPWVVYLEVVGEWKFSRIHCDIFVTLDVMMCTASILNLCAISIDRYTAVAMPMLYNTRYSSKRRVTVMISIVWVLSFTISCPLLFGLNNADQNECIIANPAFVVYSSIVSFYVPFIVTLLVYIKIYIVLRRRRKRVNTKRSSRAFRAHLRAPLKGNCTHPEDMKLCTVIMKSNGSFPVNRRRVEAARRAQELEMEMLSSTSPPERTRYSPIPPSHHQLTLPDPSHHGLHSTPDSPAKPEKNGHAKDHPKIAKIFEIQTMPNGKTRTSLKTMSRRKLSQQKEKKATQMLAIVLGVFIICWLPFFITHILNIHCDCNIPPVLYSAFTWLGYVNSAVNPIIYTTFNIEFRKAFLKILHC
Protocol: Chinese hamster ovary cells (CHO cells) were used for the binding experiments. About 24 h before transfection, CHO cells were plated on a 10 cm Petri dish at a density of 1.5 × 10^6 cells and cultivated in 10 mL DMEM/Ham’s F12 supplemented with 10% heat-inactivated fetal bovine serum (FBS).
For transfection, the desired amount of linear polyethyleneimine (PEI) 25_K (Polysciences, Eppelheim, Germany) and DNA (dopamine receptor (D2) wild type, cDNA resource centre, Bloomsberg, PA, USA) were diluted separately in phosphate buffer saline (PBS). After 20 min, DNA was added to PEI solution, mixed and left for an additional 30 min. Final concentration of reactants was 6 µg plasmid DNA and 18 µg PEI per ml. PEI/DNA complex was added (1 mL/dish) and the plates were incubated for another 24 h. Then, the medium was replaced with fresh DMEM/Ham’s F12 with 10% FBS and incubated for an additional 24 h. Cells were maintained at 37 °C in a 5% CO2-humidified atmosphere.
About 48 h after transfection, cells were washed with PBS, mechanically detached from the dish with a plastic scraper in the ice-cold PBS, and centrifuged for 3 min at 250× g. Pellet was suspended in the ice-cold homogenization medium (100 mM NaCl, 20 mM Na-HEPES, 10 mM EDTA, pH 7.4) and homogenized on ice by two 30-s strokes using Polytron homogenizer (Ultra-Turrax; Janke & Kunkel GmbH & Co. KG, IKA-Labortechnik, Staufen, Germany) with a 30-s pause between strokes. Cell homogenates were centrifuged for 5 min at 1000× g. The supernatant was collected and centrifuged for 30 min at 30,000× g. Pellets were suspended in incubation medium (100 mM NaCl, 20 mM Na-HEPES, 10 mM MgCl2, pH 7.4), left for 30 min at 4 °C and centrifuged again for 30 min at 30,000× g. The membrane pellets were kept at −80 °C until use.
All radioligand binding experiments were optimized and carried out as described by El-Fakahany and Jakubik. […] Saturation experiments were performed in 800 μL volume containing: 400 μL of the membrane suspension and 400 μL of the radioligand in six increasing concentrations (ranging from 31 to 1000 pM).
The examined compounds were diluted in incubation buffer and tested in six concentrations (ranging from 0.1 nM–1 mM). The reactions were performed in 400 µL volume containing: 100 µL of the radioligand, 100 µL of tested substances dilution, and 200 µL of the membranes.
Nonspecific binding was determined in the presence of 10 μM unlabeled sulpiride. Membrane suspensions from both saturation and binding experiments (approximately 10 μg of membrane proteins per sample) were incubated in 96-well plates for 1 h at 25 °C in the incubation medium (100 mM NaCl, 20 mM Na-HEPES,10 mM MgCl2, pH = 7.4) in a shaking incubator (25 °C; PST-60HL, Biosan, Riga, Latvia).
The binding reactions were terminated by filtration of the membranes through APFC filter plate (Millipore, Prague, Czech Republic) pre-soaked with 0.5% PEI and washed with ice-cold distilled water using a Brandel cell harvester (Brandel, Gaithersburg, MD, USA). Then, filters with labelled membranes were dried. After 24 h, scintillation cocktail (Rotiszint eco plus, Carl Roth) was added to each sample and radioactivity was quantified by liquid scintillation spectrometry using Wallac Microbeta scintillation counter (Wallac, Turku, Finland). Competition binding experiments were performed per triplicate and all experiments were performed three times. Protein concentration was determined by the Lowry method in the Peterson modification.

[2] = PAMPA assay (Polar Brain Lipid membrane); details: for CNS (+/−): BBB permeability class predicted from PAMPA Pe; for Papp: PAMPA, pH 7.4
Protocol: In this study, it has been used as a non-cell-based in vitro assay carried out in a coated 96-well membrane filter. The filter membrane of the donor plate was coated with PBL (Polar Brain Lipid, Avanti, AL, USA) in dodecane (4 µL of 20 mg/mL PBL in dodecane) and the acceptor well was filled with 300 µL of PBS pH 7.4 buffer (VA tested compounds were dissolved first in the DMSO/phosphate-buffered saline mixture (maximum 0.5% v/v of DMSO) and subsequently diluted with phosphate-buffered saline (pH 7.4) to final concentrations of 40–100 μM in the donor wells). […] About 300 µL of the donor solution was added to the donor wells (VD) and the donor filter plate was carefully put on the acceptor plate so that coated membrane was “in touch” with both donor solution and acceptor buffer. Test compound diffused from the donor well through the lipid membrane (Area = 0.28 cm^2) to the acceptor well. The concentration of the drug in both donor and the acceptor wells were assessed after 3, 4, 5, and 6 h of incubation in quadruplicate using the UV plate reader Synergy HT (Biotek, Winooski, VT, USA) at the maximum absorption wavelength of each compound. Besides that, solution of theoretical compound concentration, simulating the equilibrium state established if the membrane were ideally permeable was prepared and assessed as well. Concentration of the compounds in the donor and acceptor well and equilibrium concentration were calculated from the standard curve and expressed as the permeability (Pe) according to the equation:(4) Pe=C×ln(1−[drug] acceptor/[drug] equilibrium) where C=(VD×VA)/(VD×VA) Area×Time

CHO-K1 cells = test: MTT assay on CHO-K1 cells; format: cell-based, Chinese hamster; details: Cricetulus griseus, cell viability, 24 h exposure, mean ± SEM, n = 3
Protocol: Standard MTT (3-[4,5-dimethylthiazol-2-yl]-2,5-diphenyltetrazolium bromide) assay (Sigma Aldrich, Prague, Czech Republic) was used according to the manufacturer´s protocol on the CHO-K1 (Chinese hamster ovary, ECACC, Salisbury, UK) in order to compare the effect of different compounds within the series. The cells were cultured according to ECACC recommended conditions and seeded in a density of 8000 per well as described previously. […] Cells were exposed to a tested compound for 24 h. Then the medium was replaced by a medium containing 10 μM of MTT and cells were allowed to produce formazan for another approximately 3 h under surveillance. Thereafter, medium with MTT was sucked out and crystals of formazan were dissolved in DMSO (100 µL). Cell viability was assessed spectrophotometrically by the amount of formazan produced. Absorbance was measured at 570 nm with 650 nm reference wavelength on Synergy HT (BioTek, Winooski, VT, USA). IC50 was then calculated from the control-subtracted triplicates using non-linear regression (four parameters) of GraphPad Prism 9 software. Final IC50 and SEM values were obtained as a mean of three independent measurements.

D2Rs = details: Figure 1; cited from earlier work
D3Rs = details: Figure 1; cited from earlier work

Row | SMILES | Ki [1] | IC50 [1] | CNS (+/−) [2] | Papp [2] | IC50 (CHO-K1 cells) | pKi for D2Rs (D2Rs) | pKi for D3Rs (D3Rs) | Ki (D2Rs)
1 | O=C1CCc2ccccc2N1CCCN1CCCC1 [5a, 1-(3-(Pyrrolidin-1-yl)propyl)-3,4-dihydroquinolin-2(1H)-one] | 24 ± 5.8 µM | 98 ± 23 µM | CNS + (CNS + (high BBB permeability predicted), Pe (10^−6 cm∙s^−1) > 4.0) | 7.3 ± 0.8 ×10⁻⁶ cm/s | 2 ± 0.8 mM | – | – | –
2 | O=C1CCc2ccccc2N1CCCN1CCCCC1 [5b, 1-(3-(Piperidin-1-yl)propyl)-3,4-dihydroquinolin-2(1H)-one] | 9.7 ± 1.6 µM | 39 ± 6.4 µM | CNS + (CNS + (high BBB permeability predicted), Pe (10^−6 cm∙s^−1) > 4.0) | 13 ± 0.1 ×10⁻⁶ cm/s | 1.5 ± 0.3 mM | – | – | –
3 | CN1CCN(CCCN2C(=O)CCc3ccccc32)CC1 [5c, 1-(3-(4-Methylpiperazin-1-yl)propyl)-3,4-dihydroquinolin-2(1H)-one] | 12 ± 3.2 µM | 49 ± 13 µM | CNS + (CNS + (high BBB permeability predicted), Pe (10^−6 cm∙s^−1) > 4.0) | 7 ± 0.4 ×10⁻⁶ cm/s | 2 ± 1 mM | – | – | –
4 | O=C1CCc2ccccc2N1CCCN1CCOCC1 [5d, 1-(3-Morpholinopropyl)-3,4-dihydroquinolin-2(1H)-one] | 20 ± 1.6 µM | 80 ± 6.3 µM | CNS + (CNS + (high BBB permeability predicted), Pe (10^−6 cm∙s^−1) > 4.0) | 12 ± 2 ×10⁻⁶ cm/s | 1.1 ± 0.3 mM | – | – | –
5 | O=C1CCc2ccccc2N1CCCN1CCSCC1 [5e, 1-(3-Thiomorpholinopropyl)-3,4-dihydroquinolin-2(1H)-one] | 7.6 ± 1.9 µM | 30 ± 7.7 µM | CNS + (CNS + (high BBB permeability predicted), Pe (10^−6 cm∙s^−1) > 4.0) | 24 ± 2.1 ×10⁻⁶ cm/s | 0.5 ± 0.1 mM | – | – | –
6 | CCN(CC)CCCN1C(=O)CCc2ccccc21 [5f, 1-(3-(Diethylamino)propyl)-3,4-dihydroquinolin-2(1H)-one] | 37 ± 8.6 µM | 150 ± 34 µM | CNS + (CNS + (high BBB permeability predicted), Pe (10^−6 cm∙s^−1) > 4.0) | 9.4 ± 0.4 ×10⁻⁶ cm/s | 0.9 ± 0.2 mM | – | – | –
7 | COCCN(C)CCCN1C(=O)CCc2ccccc21 [5g, 1-(3-((2-Methoxyethyl)(methyl)amino)propyl)-3,4-dihydroquinolin-2(1H)-one] | 26 ± 6.1 µM | 106 ± 24 µM | CNS + (CNS + (high BBB permeability predicted), Pe (10^−6 cm∙s^−1) > 4.0) | 10 ± 1.6 ×10⁻⁶ cm/s | 1.5 ± 0.5 mM | – | – | –
8 | O=C1CCc2ccccc2N1CCCCN1CCCC1 [6a, 1-(4-(Pyrrolidin-1-yl)butyl)-3,4-dihydroquinolin-2(1H)-one] | 23 ± 3.6 µM | 93 ± 14 µM | CNS + (CNS + (high BBB permeability predicted), Pe (10^−6 cm∙s^−1) > 4.0) | 7.7 ± 1.8 ×10⁻⁶ cm/s | 1.1 ± 0.2 mM | – | – | –
9 | O=C1CCc2ccccc2N1CCCCN1CCCCC1 [6b, 1-(4-(Piperidin-1-yl)butyl)-3,4-dihydroquinolin-2(1H)-one] | 14 ± 2.5 µM | 57 ± 10 µM | CNS + (CNS + (high BBB permeability predicted), Pe (10^−6 cm∙s^−1) > 4.0) | 10 ± 1.4 ×10⁻⁶ cm/s | 0.8 ± 0.2 mM | – | – | –
10 | CN1CCN(CCCCN2C(=O)CCc3ccccc32)CC1 [6c, 1-(4-(4-Methylpiperazin-1-yl)butyl)-3,4-dihydroquinolin-2(1H)-one] | 21 ± 0.6 µM | 82 ± 2.3 µM | CNS + (CNS + (high BBB permeability predicted), Pe (10^−6 cm∙s^−1) > 4.0) | 7.1 ± 1.2 ×10⁻⁶ cm/s | 1.2 ± 0.2 mM | – | – | –
11 | O=C1CCc2ccccc2N1CCCCN1CCOCC1 [6d, 1-(4-Morpholinobutyl)-3,4-dihydroquinolin-2(1H)-one] | 41 ± 14 µM | 166 ± 56 µM | CNS + (CNS + (high BBB permeability predicted), Pe (10^−6 cm∙s^−1) > 4.0) | 17 ± 2.1 ×10⁻⁶ cm/s | 1.3 ± 0.2 mM | – | – | –
12 | O=C1CCc2ccccc2N1CCCCN1CCSCC1 [6e, 1-(4-Thiomorpholinobutyl)-3,4-dihydroquinolin-2(1H)-one] | 9.7 ± 2.3 µM | 40 ± 8.2 µM | CNS + (CNS + (high BBB permeability predicted), Pe (10^−6 cm∙s^−1) > 4.0) | 23 ± 3.3 ×10⁻⁶ cm/s | 0.8 ± 0.1 mM | – | – | –
13 | CCN(CC)CCCCN1C(=O)CCc2ccccc21 [6f, 1-(4-(Diethylamino)butyl)-3,4-dihydroquinolin-2(1H)-one] | 27 ± 4.7 µM | 103 ± 19 µM | CNS + (CNS + (high BBB permeability predicted), Pe (10^−6 cm∙s^−1) > 4.0) | 7.4 ± 0.9 ×10⁻⁶ cm/s | 1.8 ± 0.3 mM | – | – | –
14 | COCCN(C)CCCCN1C(=O)CCc2ccccc21 [6g, 1-(4-((2-Methoxyethyl)(methyl)amino)butyl)-3,4-dihydroquinolin-2(1H)-one] | 45 ± 11 µM | 188 ± 38 µM | CNS + (CNS + (high BBB permeability predicted), Pe (10^−6 cm∙s^−1) > 4.0) | 9.5 ± 1.1 ×10⁻⁶ cm/s | 2.1 ± 0.8 mM | – | – | –
15 | NS(=O)(=O)c1cc2c(cc1Cl)N=CNS2(=O)=O [Chlorothiazide, reference compound] | – | – | – | 1.2 ± 0.5 ×10⁻⁶ cm/s | – | – | – | –
16 | CNC(=C[N+](=O)[O-])NCCSCc1ccc(CN(C)C)o1 [Ranitidine, reference compound] | – | – | CNS − (CNS − (low BBB permeability predicted), Pe (10^−6 cm∙s^−1) < 2.0) | 0.4 ± 0.3 ×10⁻⁶ cm/s | – | – | – | –
17 | COc1ccccc1N1CCN(CCCN2C(=O)CCc3ccccc32)CC1 [USC-D301] | – | – | – | – | – | 7.8 | 6.4 | –
18 | CCc1cc(Cl)c(OC)c(C(=O)NC[C@@H]2CCCN2CC)c1O [eticlopride] | – | – | – | – | – | – | – | 0.0001 µM
